In paper PMC5094990, “Novel 1, 3-N, O-Spiroheterocyclic compounds inhibit heparanase activity and enhance nedaplatin-induced cytotoxicity in cervical cancer cells” (Oncotarget, 2016):

Columns and labels:
HeLa cells = assay: MTT assay, growth inhibition of HeLa cells; type: cell-based, human; conditions: Homo sapiens, HeLa; for inhibition at 1 µM / inhibition at 5 µM / inhibition at 15 µM / inhibition at 30 µM / inhibition at 60 µM / inhibition at 120 µM / inhibition at 180 µM / inhibition at 240 µM: 48 hs, mean ± s, read-out: Growth inhibition rate in HeLa cells; for IC50: 48 hours, MTT, read-out: IC50, growth inhibition of HeLa cells
Protocol: Cells were cultured in improved medium supplemented with 10% FBS and kept at 37°C in a […] humidified atmosphere containing 5% CO2. Logarithmic phase cells were used for the experiment and were treated with different concentrations of different medications for different amounts of time. […] Inhibitors were made into 10 mM stock solutions with DMSO, filtered, and kept at room temperature away from light. These inhibitor stock solutions were diluted to the required concentration (1, 5, 15, 30, 60, 120, 180, or 240 μM) before every experiment. The final doses of nedaplatin were […]. In order to determine whether an HPA inhibitor sensitized cells to nedaplatin, 10 μM of inhibitor number 16 (No. 16) was added into each experimental well with nedaplatin.
200 μl of single-cell suspension at a density of 5 × 10^4 cells/ml was seeded into 96-well plates. When cells were adherent, the medium was replaced with 200 μl of medium containing different concentrations of inhibitor or nedaplatin, and the cells were further incubated for 24 hours to 96 hours respectively. 20 μl MTT solution ([…] in phosphate buffered saline (PBS)) was added to each well 4 hours before the treatment ended. The cells were then incubated for another 4 hours, after which the supernatants were removed. The cells were totally solubilized in 150 μl DMSO. OD values were measured at the wavelength of 492 nm with a reference wavelength of 630 nm. Inhibition rate (IR) in the cells was calculated as follows: IR = ((OD2-OD0)-(OD1-OD0))/(OD2-OD0) × 100%, where OD0 was the OD value of blank wells, OD2 was the value of normal control wells, and OD1 was the value of experimental wells. Each condition was replicated in six separate wells.

human recombinant HPA = molecular target: T1, human recombinant HPA (Homo sapiens, UniProt Q9Y251); assay: Detection of HPA activity inhibition (Heparan Degrading Enzyme Assay Kit); type: biochemical; conditions: 31 mIU human recombinant HPA, 37°C, 45 minutes; read-out: IC50, inhibitory effect on heparanase activity
T1 sequence (Q9Y251 158-543 limits assumed): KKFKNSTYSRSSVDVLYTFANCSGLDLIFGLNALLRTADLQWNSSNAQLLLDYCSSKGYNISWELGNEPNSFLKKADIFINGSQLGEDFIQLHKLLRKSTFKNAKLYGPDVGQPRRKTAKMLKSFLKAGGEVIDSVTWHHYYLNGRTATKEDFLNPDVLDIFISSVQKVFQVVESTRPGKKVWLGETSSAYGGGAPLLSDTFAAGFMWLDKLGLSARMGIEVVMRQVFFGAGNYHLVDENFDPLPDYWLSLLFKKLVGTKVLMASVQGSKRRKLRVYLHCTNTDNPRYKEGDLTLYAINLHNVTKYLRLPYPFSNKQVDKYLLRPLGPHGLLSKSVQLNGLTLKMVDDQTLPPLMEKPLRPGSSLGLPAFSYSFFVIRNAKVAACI
T1 sequence (Q9Y251 36-109 limits assumed): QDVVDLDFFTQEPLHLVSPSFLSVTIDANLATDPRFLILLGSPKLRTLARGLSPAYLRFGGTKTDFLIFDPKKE
Protocol: The final reaction volume of each vial was 100 μl. […] Then, 100 μl of terminating liquid was added into each well. OD values were examined at a wavelength of 450 nm. Each concentration was tested in three separate wells. GraphPad Prism 5 (GraphPad Prism Software Inc., San Diego) was used to calculate the inhibitory IC50 values.

melting point [°C] | IC50 (HeLa cells) [µM] | IC50 (human recombinant HPA) [µM] | Compound | inhibition at 1 µM (HeLa cells) [%] | inhibition at 5 µM (HeLa cells) [%] | inhibition at 15 µM (HeLa cells) [%] | inhibition at 30 µM (HeLa cells) [%] | inhibition at 60 µM (HeLa cells) [%] | inhibition at 120 µM (HeLa cells) [%] | inhibition at 180 µM (HeLa cells) [%] | inhibition at 240 µM (HeLa cells) [%]
131.7 to 132.6 | – | – | COc1ccc(C2CNC(c3c(F)cccc3F)OC23CCCCC3)cc1 (stereo not shown) | – | – | – | – | – | – | – | –
127.7 to 128.5 | 70.2 | – | Clc1ccc(C2NCC(c3ccccc3)C3(CCCCC3)O2)cc1 (stereo not shown) [No. 11] | 1.22 ± 0.0789 | 2.65 ± 0.0739 | 5.26 ± 0.294 | 13.6 ± 1.22 | 41.8 ± 1.19 | 71.4 ± 1.15 | 97.18 ± 0.525 | 98.02 ± 0.465
– | 96.6 | – | Fc1ccc(C2NCC(c3ccccc3)C3(CCCCC3)O2)cc1 (stereo not shown) [No. 12] | -5.15 ± 0.0626 | -1.54 ± 0.472 | 5.39 ± 0.33 | 8.76 ± 1.21 | 31.7 ± 1.21 | 55.5 ± 0.671 | 89.01 ± 0.491 | 90.89 ± 0.416
130.4 to 131.2 | 64.2 | 4.47 | Fc1cccc(F)c1C1NCC(c2ccccc2)C2(CCCCC2)O1 (stereo not shown) [No. 14] | 2.92 ± 0.155 | 4.05 ± 0.888 | 9.57 ± 0.761 | 17.9 ± 1.2 | 46.4 ± 1.22 | 78.58 ± 0.502 | 96.98 ± 0.86 | 98.96 ± 0.517
